Measurements: PMC2997942 (Molecular pharmaceutics, 2010)
Where two headings read alike, the source gives them in different places.

Key:
OCTN2 [1] = biological target: T1, OCTN2 (Homo sapiens, UniProt O76082); settings: read-out: Ki or IC50; Caki-1 (human proximal tubule cell line); cited from earlier work
T1 sequence (O76082 1-557): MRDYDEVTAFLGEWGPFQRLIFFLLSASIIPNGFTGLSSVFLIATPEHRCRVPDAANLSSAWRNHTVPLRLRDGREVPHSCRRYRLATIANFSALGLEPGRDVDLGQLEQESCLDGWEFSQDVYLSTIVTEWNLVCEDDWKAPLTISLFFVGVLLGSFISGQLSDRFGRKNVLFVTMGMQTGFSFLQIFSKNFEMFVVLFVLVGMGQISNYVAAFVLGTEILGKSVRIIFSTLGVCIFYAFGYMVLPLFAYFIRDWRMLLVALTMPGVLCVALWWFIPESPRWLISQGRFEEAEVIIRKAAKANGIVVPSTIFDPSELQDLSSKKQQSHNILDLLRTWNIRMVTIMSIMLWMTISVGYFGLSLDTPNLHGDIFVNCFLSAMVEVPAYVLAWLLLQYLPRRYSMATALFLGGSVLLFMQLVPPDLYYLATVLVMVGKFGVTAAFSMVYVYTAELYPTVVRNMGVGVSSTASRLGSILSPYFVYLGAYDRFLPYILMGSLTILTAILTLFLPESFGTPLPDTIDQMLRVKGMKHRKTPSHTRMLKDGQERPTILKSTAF

[2] = clinical; ref Supplemental Table S6 references 1-19; cited from earlier work
OCTN2 [3] = biological target: T1, OCTN2; settings: hOCTN2-Transfected MDCKII Cells, cited from earlier work; for Ki: read-out: Ki or IC50
OCTN2 [4] = biological target: T1, OCTN2; settings: read-out: Ki or IC50; L6 cells overexpressing hOCTN2; cited from earlier work
human OCTN2 = settings: read-out: Ki or IC50; Hela with human OCTN2; cited from earlier work
OCTN2 [5] = biological target: T1, OCTN2; assay: Inhibition of L-carnitine uptake in stably transfected hOCTN2-MDCK cells; assay type: cell-based; settings: Observed Ki (±SEM), test set, 10 min, competitive inhibition model
[6] = in vivo; cited from earlier work
rat OCTN2 [7] = settings: L6 stable cell line with rat OCTN2; cited from earlier work
OCTN2 [8] = biological target: T1, OCTN2; settings: read-out: Ki or IC50; BeWo (human placental cell line); cited from earlier work
OCTN2 [9] = settings: Mouse enterocyte; cited from earlier work
Rat kidney OCTN2 = settings: read-out: Ki or IC50; Rat kidney OCTN2 reconstituted in liposomes; cited from earlier work
rat OCTN2 [10] = settings: read-out: Ki or IC50; HEK stable cell line with rat OCTN2; cited from earlier work
[11] = test system: Mouse myoblastic C2C12 cells; settings: read-out: Ki or IC50; cited from earlier work

CCCC[N+]1(C)C2CC(OC(=O)C(CO)c3ccccc3)CC1C1OC12 (single isomer, unassigned; (-)) [(−)-N- butylscopolamine]
Ki (OCTN2 [1]): 1010 µM

CCCC(=O)Nc1ccc(OCC(O)CNC(C)C)c(C(C)=O)c1 (stereo not drawn) [Acebutolol]
Documented to cause rhabdomyolysis and/or carnitine deficiency in the literature [2]: No
Ki or IC50 (OCTN2 [3]): Not inhibitor

C[C@H](CS)C(=O)N1CCC[C@H]1C(=O)O [Captopril]
Ki or IC50 (OCTN2 [3]): Not inhibitor

Cc1nnc(SCC2=C(C(=O)O)N3C(=O)[C@@H](NC(=O)Cn4cnnn4)[C@H]3SC2)s1 [Cefazolin]
Ki (OCTN2 [4]): 6740 µM

CO/N=C(\C(=O)N[C@@H]1C(=O)N2C(C(=O)[O-])=C(C[N+]3(C)CCCC3)CS[C@H]12)c1csc(N)n1 [Cefepime]
Ki (human OCTN2): 1700 µM

CO/N=C(\C(=O)N[C@@H]1C(=O)N2C(C(=O)[O-])=C(C[n+]3ccc(N)n3CCO)CS[C@H]12)c1csc(N)n1 [Cefoselis]
Documented to cause rhabdomyolysis and/or carnitine deficiency in the literature [2]: Yes[3]
Ki (human OCTN2): 6400 µM

CO/N=C(\C(=O)N[C@@H]1C(=O)N2C(C(=O)O)=C(COC(N)=O)CS[C@H]12)c1ccco1 [Cefuroxime]
Ki (OCTN2 [4]): 525 µM
Documented to cause rhabdomyolysis and/or carnitine deficiency in the literature [2]: Yes[9]

O=C(Cc1cccs1)N[C@@H]1C(=O)N2C(C(=O)[O-])=C(C[n+]3ccccc3)CS[C@H]12 [Cephaloridine]
Ki (human OCTN2): 230 µM

O=C(O)COCCN1CCN(C(c2ccccc2)c2ccc(Cl)cc2)CC1 (stereo not drawn) [Cetirizine]
Documented to cause rhabdomyolysis and/or carnitine deficiency in the literature [2]: No

CN/C(=N/CCSCc1nc[nH]c1C)NC#N [Cimetidine]
Documented to cause rhabdomyolysis and/or carnitine deficiency in the literature [2]: No

COc1cc(N)c(Cl)cc1C(=O)NC1CCN(CCCOc2ccc(F)cc2)CC1OC (stereo not drawn) [Cisapride]
Documented to cause rhabdomyolysis and/or carnitine deficiency in the literature [2]: Yes[13]
Ki (OCTN2 [5]): 66.7 ± 9.8 µM

N.N.[Cl][Pt][Cl] [Cisplatin]
Documented to cause rhabdomyolysis and/or carnitine deficiency in the literature [2]: Yes[19]
Cmax [6]: 8130 nM
Ki or IC50 (rat OCTN2 [7]): Not inhibitor

COc1cccc2c1C(=O)c1c(O)c3c(c(O)c1C2=O)C[C@@](O)(C(C)=O)C[C@@H]3O[C@H]1C[C@H](N)[C@H](O)[C@H](C)O1 [Daunorubicin]
Documented to cause rhabdomyolysis and/or carnitine deficiency in the literature [2]: No
Ki (OCTN2 [5]): 502 ± 41 µM

C[C@H]1O[C@@H](O[C@H]2[C@@H](O)C[C@H](O[C@H]3[C@@H](O)C[C@H](O[C@H]4CC[C@@]5(C)[C@H](CC[C@@H]6[C@@H]5C[C@@H](O)[C@]5(C)[C@@H](C7=CC(=O)OC7)CC[C@]65O)C4)O[C@@H]3C)O[C@@H]2C)C[C@H](O)[C@@H]1O [Digoxin]
Ki or IC50 (OCTN2 [3]): Not inhibitor

O=C1[C@H](CC[C@H](O)c2ccc(F)cc2)[C@@H](c2ccc(O)cc2)N1c1ccc(F)cc1 [Ezetimibe]
Documented to cause rhabdomyolysis and/or carnitine deficiency in the literature [2]: Yes with statin[15]
Ki (OCTN2 [5]): 29.3 ± 5 µM

NC(N)=Nc1nc(CSCCC(N)=NS(N)(=O)=O)cs1 [Famotidine]
Ki (OCTN2 [1]): 1920 µM
Documented to cause rhabdomyolysis and/or carnitine deficiency in the literature [2]: Yes[18]

NS(=O)(=O)c1cc(C(=O)O)c(NCc2ccco2)cc1Cl [Furosemide]
Documented to cause rhabdomyolysis and/or carnitine deficiency in the literature [2]: No

NCC1(CC(=O)O)CCCCC1 [Gabapentin]
Documented to cause rhabdomyolysis and/or carnitine deficiency in the literature [2]: No

Cc1c(F)c(N2CCNC(C)C2)cc2c1c(=O)c(C(=O)O)cn2C1CC1 (stereo not drawn) [Grepafloxacin]
Ki (OCTN2 [8]): 300 µM

CCc1c2c(nc3ccc(OC(=O)N4CCC(N5CCCCC5)CC4)cc13)-c1cc3c(c(=O)n1C2)COC(=O)[C@]3(O)CC [Irinotecan]
Ki (OCTN2 [5]): 219 ± 18 µM

CCN(CC)CC(=O)Nc1c(C)cccc1C [Lidocaine]
Ki or IC50 (OCTN2 [9]): Not inhibitor
Documented to cause rhabdomyolysis and/or carnitine deficiency in the literature [2]: No

CC12CC3CC(C)(C1)CC(N)(C3)C2 [Memantine]
Documented to cause rhabdomyolysis and/or carnitine deficiency in the literature [2]: No
Ki or IC50 (OCTN2 [3]): Not inhibitor

CN(C)C(=N)N=C(N)N [Metformin]
Ki (OCTN2 [1]): 4960 µM
Documented to cause rhabdomyolysis and/or carnitine deficiency in the literature [2]: Yes[14]

COCCc1ccc(OCC(O)CNC(C)C)cc1 (stereo not drawn) [Metoprolol]
Ki or IC50 (OCTN2 [3]): Not inhibitor

C[N+](C)(C)NCCC(=O)[O-] [Mildronate]
Documented to cause rhabdomyolysis and/or carnitine deficiency in the literature [2]: No
Ki (OCTN2 [3]): 26 µM

CNC(=C[N+](=O)[O-])NCCSCc1csc(CN(C)C)n1 [Nizatidine]
Documented to cause rhabdomyolysis and/or carnitine deficiency in the literature [2]: No
Ki (OCTN2 [5]): 183 ± 17 µM

COc1ccc2[nH]c([S+]([O-])Cc3ncc(C)c(OC)c3C)nc2c1 (stereo not drawn) [Omeprazole]
Documented to cause rhabdomyolysis and/or carnitine deficiency in the literature [2]: Yes[6]
Ki (Rat kidney OCTN2): 14.6 µM

O=C1[O][Pt]2([NH][C@@H]3CCCC[C@H]3[NH]2)[O]C1=O [Oxaliplatin]
Documented to cause rhabdomyolysis and/or carnitine deficiency in the literature [2]: No
Ki or IC50 (rat OCTN2 [7]): Not inhibitor

OC1(c2ccc(Cl)c(C(F)(F)F)c2)CCN(CCCC(c2ccc(F)cc2)c2ccc(F)cc2)CC1 [Penfluridol]
Documented to cause rhabdomyolysis and/or carnitine deficiency in the literature [2]: No
Ki (OCTN2 [5]): 26.5 ± 4.1 µM

CCCN(CCC)S(=O)(=O)c1ccc(C(=O)O)cc1 [Probenecid]
Ki or IC50 (OCTN2 [9]): Not inhibitor
Documented to cause rhabdomyolysis and/or carnitine deficiency in the literature [2]: No

COC(=O)[C@H]1[C@H]2C[C@@H]3c4[nH]c5cc(OC)ccc5c4CCN3C[C@H]2C[C@@H](OC(=O)c2cc(OC)c(OC)c(OC)c2)[C@@H]1OC [Reserpine]
Documented to cause rhabdomyolysis and/or carnitine deficiency in the literature [2]: No
Ki (OCTN2 [5]): 32.2 ± 4.8 µM

Cc1nc2n(c(=O)c1CCN1CCC(c3noc4cc(F)ccc34)CC1)CCCC2 [Risperidone]
Documented to cause rhabdomyolysis and/or carnitine deficiency in the literature [2]: Yes with statin[17]

CC(C)c1nc(CN(C)C(=O)N[C@H](C(=O)N[C@@H](Cc2ccccc2)C[C@H](O)[C@H](Cc2ccccc2)NC(=O)OCc2cncs2)C(C)C)cs1 [Ritonavir]
Documented to cause rhabdomyolysis and/or carnitine deficiency in the literature [2]: Yes with statin[5]

CC[C@H]1OC(=O)[C@H](C)[C@@H](O[C@H]2C[C@@](C)(OC)[C@@H](O)[C@H](C)O2)[C@H](C)[C@@H](O[C@@H]2O[C@H](C)C[C@H](N(C)C)[C@H]2O)[C@](C)(O)C[C@@H](C)/C(=N\OCOCCOC)[C@H](C)[C@@H](O)[C@]1(C)O [Roxithromycin]
Documented to cause rhabdomyolysis and/or carnitine deficiency in the literature [2]: Yes with statin[10]
Ki (OCTN2 [5]): 333 ± 25 µM

CC(=O)S[C@@H]1CC2=CC(=O)CC[C@]2(C)[C@H]2CC[C@@]3(C)[C@@H](CC[C@@]34CCC(=O)O4)[C@H]12 [Spironolactone]
Documented to cause rhabdomyolysis and/or carnitine deficiency in the literature [2]: No
Ki (OCTN2 [3]): 26 µM

Nc1c2c(nc3ccccc13)CCCC2 [Tacrine]
Cmax [6]: 134 nM
Ki (rat OCTN2 [10]): 500 µM

CCCC(CCC)C(=O)O [Valproic acid]
Documented to cause rhabdomyolysis and/or carnitine deficiency in the literature [2]: Yes[1]

CC[C@]1(O)C[C@H]2CN(CCc3c([nH]c4ccccc34)[C@@](C(=O)OC)(c3cc4c(cc3OC)N(C=O)[C@H]3[C@@](O)(C(=O)OC)[C@H](OC(C)=O)[C@]5(CC)C=CCN6CC[C@]43[C@@H]65)C2)C1 [Vincristine]
Documented to cause rhabdomyolysis and/or carnitine deficiency in the literature [2]: Yes[8]

CCC1=C[C@@H]2CN(C1)Cc1c([nH]c3ccccc13)[C@@](C(=O)OC)(c1cc3c(cc1OC)N(C)[C@H]1[C@@](O)(C(=O)OC)[C@H](OC(C)=O)[C@]4(CC)C=CCN5CC[C@]31[C@@H]54)C2 [Vinorelbine]
Documented to cause rhabdomyolysis and/or carnitine deficiency in the literature [2]: No
Ki (OCTN2 [5]): 26.8 ± 1.5 µM

Cc1cn([C@H]2C[C@H](N=[N+]=[N-])[C@@H](CO)O2)c(=O)[nH]c1=O [Zidovudine]
Ki [11]: 6 µM

Ciclotropium
Ki (OCTN2 [1]): 30 µM
Documented to cause rhabdomyolysis and/or carnitine deficiency in the literature [2]: No
Cmax [6]: 20.6 nM
